Calls of active or inactive are those of the source. The rule behind the calls is not given here.
What was measured:
[1] = biological target: Serine/threonine-protein kinase Sgk2 (Homo sapiens) (UniProt Q9HBY8); assay: activity of SGK2(h) at 1.0 µM in the Eurofins Kinase panel; settings: Compound concentration 1.0 uM
[2] = biological target: Receptor-type tyrosine-protein kinase FLT3 (Homo sapiens) (UniProt P36888); assay: activity of Flt3(h) at 1.0 µM in the Eurofins Kinase panel; settings: Compound concentration 1.0 uM
[3] = biological target: cAMP-dependent protein kinase (PKA) (Homo sapiens) (UniProt P22694+P17612+P22612); assay: activity of PKA(h) at 1.0 µM in the Eurofins Kinase panel; assay type: protein assay; settings: Compound concentration 1.0 uM
[4] = biological target: Mitogen-activated protein kinase kinase kinase 5 (Homo sapiens) (UniProt Q99683); assay: activity of ASK1(h) at 1.0 µM in the Eurofins Kinase panel; settings: Compound concentration 1.0 uM
[5] = biological target: Citron Rho-interacting kinase (Homo sapiens, UniProt O14578); assay: Promega NanoBRET (CIT)
[6] = biological target: Serine/threonine-protein kinase 16 (Homo sapiens) (UniProt O75716); assay: activity of STK16(h) at 1.0 µM in the Eurofins Kinase panel; settings: Compound concentration 1.0 uM
[7] = biological target: Eukaryotic translation initiation factor 2-alpha kinase 3 (Homo sapiens) (UniProt Q9NZJ5); assay: activity of PEK(h) at 1.0 µM in the Eurofins Kinase panel; settings: Compound concentration 1.0 uM
[8] = biological target: Mitogen-activated protein kinase kinase kinase 2 (Homo sapiens) (UniProt Q9Y2U5); assay: activity of MEKK2(h) at 1.0 µM in the Eurofins Kinase panel; settings: Compound concentration 1.0 uM
[9] = biological target: Tyrosine-protein kinase Yes (Homo sapiens) (UniProt P07947); assay: activity of Yes(h) at 1.0 µM in the Eurofins Kinase panel; settings: Compound concentration 1.0 uM
[10] = biological target: Casein kinase I isoform epsilon (Homo sapiens) (UniProt P49674); assay: activity of CK1epsilon(h) at 1.0 µM in the Eurofins Kinase panel; settings: Compound concentration 1.0 uM
[11] = biological target: Protein kinase C epsilon type (Homo sapiens) (UniProt Q02156); assay: activity of PKCepsilon(h) at 1.0 µM in the Eurofins Kinase panel; settings: Compound concentration 1.0 uM
[12] = biological target: Tyrosine-protein kinase CSK (Homo sapiens) (UniProt P41240); assay: activity of CSK(h) at 1.0 µM in the Eurofins Kinase panel; settings: Compound concentration 1.0 uM
[13] = biological target: Cyclin-dependent kinase 1/cyclin B (Homo sapiens) (UniProt P06493+P14635+Q8WWL7+O95067); assay: activity of CDK1/cyclinB(h) at 1.0 µM in the Eurofins Kinase panel; assay type: protein-complex assay; settings: Compound concentration 1.0 uM
[14] = biological target: LIM domain kinase 1 (Homo sapiens) (UniProt P53667); assay: activity of LIMK1(h) at 1.0 µM in the Eurofins Kinase panel; settings: Compound concentration 1.0 uM
[15] = biological target: NUAK family SNF1-like kinase 1 (Homo sapiens) (UniProt O60285); assay: activity of ARK5(h) at 1.0 µM in the Eurofins Kinase panel; settings: Compound concentration 1.0 uM
[16] = biological target: Ephrin type-B receptor 1 (Homo sapiens) (UniProt P54762); assay: activity of EphB1(h) at 1.0 µM in the Eurofins Kinase panel; settings: Compound concentration 1.0 uM
[17] = biological target: Tyrosine-protein kinase receptor TYRO3 (Homo sapiens) (UniProt Q06418); assay: activity of Rse(h) at 1.0 µM in the Eurofins Kinase panel; settings: Compound concentration 1.0 uM
[18] = biological target: Calcium/calmodulin-dependent protein kinase type 1D (Homo sapiens) (UniProt Q8IU85); assay: activity of CaMKIdelta(h) at 1.0 µM in the Eurofins Kinase panel; settings: Compound concentration 1.0 uM
[19] = biological target: Mitogen-activated protein kinase 10 (Homo sapiens) (UniProt P53779); assay: activity of JNK3(h) at 1.0 µM in the Eurofins Kinase panel; settings: Compound concentration 1.0 uM
[20] = biological target: Misshapen-like kinase 1 (Homo sapiens) (UniProt Q8N4C8); assay: activity of MINK(h) at 1.0 µM in the Eurofins Kinase panel; settings: Compound concentration 1.0 uM
[21] = biological target: Glycogen synthase kinase-3 alpha (Homo sapiens) (UniProt P49840); assay: activity of GSK3alpha(h) at 1.0 µM in the Eurofins Kinase panel; settings: Compound concentration 1.0 uM
[22] = biological target: Calcium/calmodulin-dependent protein kinase type 1B (Homo sapiens) (UniProt Q6P2M8); assay: activity of CaMKIbeta(h) at 1.0 µM in the Eurofins Kinase panel; settings: Compound concentration 1.0 uM
[23] = biological target: Myotonin-protein kinase (Homo sapiens) (UniProt Q09013); assay: activity of DMPK(h) at 1.0 µM in the Eurofins Kinase panel; settings: Compound concentration 1.0 uM
[24] = biological target: Serine/threonine-protein kinase MAK (Homo sapiens) (UniProt P20794); assay: activity of MAK(h) at 1.0 µM in the Eurofins Kinase panel; settings: Compound concentration 1.0 uM
[25] = biological target: Dual specificity protein kinase CLK3 (Homo sapiens) (UniProt P49761); assay: activity of CLK3(h) at 1.0 µM in the Eurofins Kinase panel; settings: Compound concentration 1.0 uM
[26] = biological target: Serine/threonine-protein kinase 38 (Homo sapiens) (UniProt Q15208); assay: activity of NDR1(h) at 1.0 µM in the Eurofins Kinase panel; settings: Compound concentration 1.0 uM
[27] = biological target: Protein kinase C beta type (Homo sapiens) (UniProt P05771); assay: activity of PKCbetaI(h) at 1.0 µM in the Eurofins Kinase panel; settings: Compound concentration 1.0 uM
[28] = biological target: Maternal embryonic leucine zipper kinase (Homo sapiens) (UniProt Q14680); assay: activity of MELK(h) at 1.0 µM in the Eurofins Kinase panel; settings: Compound concentration 1.0 uM
[29] = biological target: Tyrosine-protein kinase ITK/TSK (Homo sapiens) (UniProt Q08881); assay: activity of Itk(h) at 1.0 µM in the Eurofins Kinase panel; settings: Compound concentration 1.0 uM
[30] = biological target: Serine/threonine-protein kinase Chk2 (Homo sapiens) (UniProt O96017); assay: activity of CHK2(h) at 1.0 µM in the Eurofins Kinase panel; settings: Compound concentration 1.0 uM
[31] = biological target: CDK17/Cyclin-Y (Homo sapiens) (UniProt Q00537+Q8ND76); assay: activity of CDK17/cyclinY(h) at 1.0 µM in the Eurofins Kinase panel; assay type: protein-complex assay; settings: Compound concentration 1.0 uM
[32] = biological target: Testis-specific serine/threonine-protein kinase 2 (Homo sapiens) (UniProt Q96PF2); assay: activity of TSSK2(h) at 1.0 µM in the Eurofins Kinase panel; settings: Compound concentration 1.0 uM
[33] = biological target: cGMP-dependent protein kinase 1 (Homo sapiens) (UniProt Q13976); assay: activity of PKG1beta(h) at 1.0 µM in the Eurofins Kinase panel; settings: Compound concentration 1.0 uM
[34] = biological target: Tyrosine-protein kinase Blk (Homo sapiens) (UniProt P51451); assay: activity of Blk(h) at 1.0 µM in the Eurofins Kinase panel; settings: Compound concentration 1.0 uM
[35] = biological target: Serine/threonine-protein kinase B-raf (Homo sapiens) (UniProt P15056); assay: activity of B-Raf(h) at 1.0 µM in the Eurofins Kinase panel; settings: Compound concentration 1.0 uM
[36] = biological target: Myosin light chain kinase (Homo sapiens) (UniProt Q32MK0); assay: activity of MLCK(h) at 1.0 µM in the Eurofins Kinase panel; settings: Compound concentration 1.0 uM
Homo sapiens = species on record: Homo sapiens; assay: activity of MAPK2(h) at 1.0 µM in the Eurofins Kinase panel; settings: Compound concentration 1.0 uM
[37] = biological target: DNA-dependent protein kinase catalytic subunit (Homo sapiens) (UniProt P78527); assay: activity of DNA-PK(h) at 1.0 µM in the Eurofins Kinase panel; settings: Compound concentration 1.0 uM
[38] = biological target: Tyrosine-protein kinase ABL2 (Homo sapiens) (UniProt P42684); assay: activity of Arg(h) at 1.0 µM in the Eurofins Kinase panel; settings: Compound concentration 1.0 uM
[39] = biological target: eIF-2-alpha kinase GCN2 (Homo sapiens) (UniProt Q9P2K8); assay: activity of GCN2(h) at 1.0 µM in the Eurofins Kinase panel; settings: Compound concentration 1.0 uM
eIF-2-alpha kinase GCN2 (Homo sapiens), sequence (Q9P2K8 whole entry): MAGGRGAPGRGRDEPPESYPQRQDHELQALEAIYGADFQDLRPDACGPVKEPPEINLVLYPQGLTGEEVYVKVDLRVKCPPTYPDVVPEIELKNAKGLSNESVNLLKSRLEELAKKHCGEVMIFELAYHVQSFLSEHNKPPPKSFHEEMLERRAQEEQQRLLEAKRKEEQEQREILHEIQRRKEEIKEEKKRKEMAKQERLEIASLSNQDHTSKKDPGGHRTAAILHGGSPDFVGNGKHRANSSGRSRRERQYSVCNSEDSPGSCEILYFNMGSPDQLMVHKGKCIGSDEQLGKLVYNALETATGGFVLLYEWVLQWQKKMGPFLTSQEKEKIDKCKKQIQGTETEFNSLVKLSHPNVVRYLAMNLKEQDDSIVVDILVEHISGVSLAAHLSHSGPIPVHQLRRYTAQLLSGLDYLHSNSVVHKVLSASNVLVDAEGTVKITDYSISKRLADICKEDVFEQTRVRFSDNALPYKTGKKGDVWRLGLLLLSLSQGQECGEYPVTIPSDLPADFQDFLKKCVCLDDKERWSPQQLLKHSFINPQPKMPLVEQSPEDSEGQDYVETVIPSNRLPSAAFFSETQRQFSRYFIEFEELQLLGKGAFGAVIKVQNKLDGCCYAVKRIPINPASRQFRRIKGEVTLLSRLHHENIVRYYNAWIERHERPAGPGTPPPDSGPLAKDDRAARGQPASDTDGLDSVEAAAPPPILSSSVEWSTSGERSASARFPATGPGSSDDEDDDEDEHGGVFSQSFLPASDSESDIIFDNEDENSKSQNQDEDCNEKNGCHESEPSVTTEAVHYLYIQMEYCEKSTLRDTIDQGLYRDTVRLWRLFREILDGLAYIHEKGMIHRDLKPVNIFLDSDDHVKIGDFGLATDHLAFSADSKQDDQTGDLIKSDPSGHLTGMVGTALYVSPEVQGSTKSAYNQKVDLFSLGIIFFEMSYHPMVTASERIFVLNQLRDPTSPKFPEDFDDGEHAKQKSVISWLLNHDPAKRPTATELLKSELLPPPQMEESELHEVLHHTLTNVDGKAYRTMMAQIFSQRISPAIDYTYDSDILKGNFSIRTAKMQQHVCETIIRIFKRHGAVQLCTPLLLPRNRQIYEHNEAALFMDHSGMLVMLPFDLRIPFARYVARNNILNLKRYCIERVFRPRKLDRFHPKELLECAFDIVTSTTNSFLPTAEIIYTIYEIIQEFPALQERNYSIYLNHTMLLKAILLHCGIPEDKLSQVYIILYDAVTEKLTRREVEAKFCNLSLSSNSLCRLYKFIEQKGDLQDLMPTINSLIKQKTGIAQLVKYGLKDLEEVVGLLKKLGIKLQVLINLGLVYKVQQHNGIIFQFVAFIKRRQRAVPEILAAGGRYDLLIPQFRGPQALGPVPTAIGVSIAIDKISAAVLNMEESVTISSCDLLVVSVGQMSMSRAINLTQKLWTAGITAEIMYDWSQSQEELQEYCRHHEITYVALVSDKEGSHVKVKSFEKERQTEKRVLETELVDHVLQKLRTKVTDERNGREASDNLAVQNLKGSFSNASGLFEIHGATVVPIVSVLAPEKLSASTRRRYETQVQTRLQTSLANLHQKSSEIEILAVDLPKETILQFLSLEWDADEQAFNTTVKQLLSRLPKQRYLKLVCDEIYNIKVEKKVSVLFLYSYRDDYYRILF

Protein kinase C epsilon type (Homo sapiens), sequence (Q02156 whole entry): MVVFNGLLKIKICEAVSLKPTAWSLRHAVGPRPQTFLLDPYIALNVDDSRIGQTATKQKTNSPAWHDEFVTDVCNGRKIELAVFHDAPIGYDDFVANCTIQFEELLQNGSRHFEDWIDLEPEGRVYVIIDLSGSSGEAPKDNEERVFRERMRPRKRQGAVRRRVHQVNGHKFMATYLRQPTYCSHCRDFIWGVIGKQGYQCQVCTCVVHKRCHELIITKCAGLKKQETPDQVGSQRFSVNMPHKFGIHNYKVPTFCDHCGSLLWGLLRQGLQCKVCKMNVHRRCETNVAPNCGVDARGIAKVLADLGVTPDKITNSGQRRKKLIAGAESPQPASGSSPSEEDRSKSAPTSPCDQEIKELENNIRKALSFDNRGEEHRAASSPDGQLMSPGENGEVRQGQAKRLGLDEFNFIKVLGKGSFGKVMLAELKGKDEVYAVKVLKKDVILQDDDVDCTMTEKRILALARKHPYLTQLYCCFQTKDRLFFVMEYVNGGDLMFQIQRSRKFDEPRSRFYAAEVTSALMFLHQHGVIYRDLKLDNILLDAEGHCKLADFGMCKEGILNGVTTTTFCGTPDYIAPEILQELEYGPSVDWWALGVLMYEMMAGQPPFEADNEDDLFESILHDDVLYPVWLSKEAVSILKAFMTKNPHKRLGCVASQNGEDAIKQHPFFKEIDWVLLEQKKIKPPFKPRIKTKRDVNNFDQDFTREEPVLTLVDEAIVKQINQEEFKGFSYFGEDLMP
Serine/threonine-protein kinase Chk2 (Homo sapiens), sequence (O96017 whole entry): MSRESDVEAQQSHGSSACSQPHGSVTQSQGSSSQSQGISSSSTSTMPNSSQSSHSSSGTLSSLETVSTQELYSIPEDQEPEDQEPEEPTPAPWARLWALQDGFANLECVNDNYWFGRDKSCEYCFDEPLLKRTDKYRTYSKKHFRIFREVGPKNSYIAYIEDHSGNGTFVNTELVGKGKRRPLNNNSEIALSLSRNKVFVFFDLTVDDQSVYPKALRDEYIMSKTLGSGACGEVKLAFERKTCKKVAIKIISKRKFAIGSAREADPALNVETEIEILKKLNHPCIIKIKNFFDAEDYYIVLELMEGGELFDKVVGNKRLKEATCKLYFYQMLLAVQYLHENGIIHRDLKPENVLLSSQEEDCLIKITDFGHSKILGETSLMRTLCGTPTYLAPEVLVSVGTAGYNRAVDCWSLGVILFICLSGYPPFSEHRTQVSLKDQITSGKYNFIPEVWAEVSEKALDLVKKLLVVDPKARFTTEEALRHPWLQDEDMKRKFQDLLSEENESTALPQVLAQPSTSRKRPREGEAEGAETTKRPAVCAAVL
Myotonin-protein kinase (Homo sapiens), sequence (Q09013 whole entry): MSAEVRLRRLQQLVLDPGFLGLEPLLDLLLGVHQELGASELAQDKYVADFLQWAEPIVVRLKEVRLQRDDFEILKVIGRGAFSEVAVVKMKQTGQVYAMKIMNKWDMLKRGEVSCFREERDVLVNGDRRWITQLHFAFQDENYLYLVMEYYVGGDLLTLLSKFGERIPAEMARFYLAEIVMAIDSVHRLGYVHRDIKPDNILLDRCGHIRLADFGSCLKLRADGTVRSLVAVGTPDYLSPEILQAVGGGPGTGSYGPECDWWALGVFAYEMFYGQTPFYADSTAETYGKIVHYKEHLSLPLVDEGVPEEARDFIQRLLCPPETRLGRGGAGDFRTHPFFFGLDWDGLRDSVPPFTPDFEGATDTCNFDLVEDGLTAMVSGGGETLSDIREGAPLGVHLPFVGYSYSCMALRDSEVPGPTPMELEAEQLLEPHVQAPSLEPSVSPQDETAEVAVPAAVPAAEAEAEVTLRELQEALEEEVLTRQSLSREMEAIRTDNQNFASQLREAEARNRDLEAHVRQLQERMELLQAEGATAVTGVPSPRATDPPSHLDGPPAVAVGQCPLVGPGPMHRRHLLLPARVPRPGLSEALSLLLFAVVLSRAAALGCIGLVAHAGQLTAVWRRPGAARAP
Mitogen-activated protein kinase 10 (Homo sapiens), sequence (P53779 whole entry): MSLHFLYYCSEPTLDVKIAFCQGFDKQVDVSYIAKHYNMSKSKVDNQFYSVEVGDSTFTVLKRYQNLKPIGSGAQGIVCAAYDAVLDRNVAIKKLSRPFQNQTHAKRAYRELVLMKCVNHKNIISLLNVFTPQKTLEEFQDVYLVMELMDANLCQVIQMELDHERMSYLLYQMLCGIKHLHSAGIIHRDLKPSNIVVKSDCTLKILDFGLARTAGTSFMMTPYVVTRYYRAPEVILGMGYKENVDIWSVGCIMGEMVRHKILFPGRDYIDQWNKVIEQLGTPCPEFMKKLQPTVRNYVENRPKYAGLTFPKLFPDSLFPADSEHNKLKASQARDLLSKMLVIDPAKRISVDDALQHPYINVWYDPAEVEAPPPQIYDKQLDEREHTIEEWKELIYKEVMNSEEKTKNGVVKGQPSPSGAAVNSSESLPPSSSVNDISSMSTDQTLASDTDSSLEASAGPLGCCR
Maternal embryonic leucine zipper kinase (Homo sapiens), sequence (Q14680 whole entry, looked up): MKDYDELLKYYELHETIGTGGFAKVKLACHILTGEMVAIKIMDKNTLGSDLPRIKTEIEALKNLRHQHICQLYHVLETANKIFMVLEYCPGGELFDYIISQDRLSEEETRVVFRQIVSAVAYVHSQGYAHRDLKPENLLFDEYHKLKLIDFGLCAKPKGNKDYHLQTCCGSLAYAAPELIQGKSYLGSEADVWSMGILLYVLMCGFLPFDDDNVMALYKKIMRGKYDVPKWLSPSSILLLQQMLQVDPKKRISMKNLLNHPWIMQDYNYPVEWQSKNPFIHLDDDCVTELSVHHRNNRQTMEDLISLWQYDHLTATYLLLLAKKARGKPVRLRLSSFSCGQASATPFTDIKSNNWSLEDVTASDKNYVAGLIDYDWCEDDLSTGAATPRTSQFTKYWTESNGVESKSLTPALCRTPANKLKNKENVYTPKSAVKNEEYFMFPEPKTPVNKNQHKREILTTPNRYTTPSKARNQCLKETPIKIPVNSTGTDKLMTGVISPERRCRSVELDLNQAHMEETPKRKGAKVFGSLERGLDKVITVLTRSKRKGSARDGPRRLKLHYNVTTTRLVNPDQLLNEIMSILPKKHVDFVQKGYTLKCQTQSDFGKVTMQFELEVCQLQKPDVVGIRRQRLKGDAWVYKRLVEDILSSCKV
Testis-specific serine/threonine-protein kinase 2 (Homo sapiens), sequence (Q96PF2 whole entry): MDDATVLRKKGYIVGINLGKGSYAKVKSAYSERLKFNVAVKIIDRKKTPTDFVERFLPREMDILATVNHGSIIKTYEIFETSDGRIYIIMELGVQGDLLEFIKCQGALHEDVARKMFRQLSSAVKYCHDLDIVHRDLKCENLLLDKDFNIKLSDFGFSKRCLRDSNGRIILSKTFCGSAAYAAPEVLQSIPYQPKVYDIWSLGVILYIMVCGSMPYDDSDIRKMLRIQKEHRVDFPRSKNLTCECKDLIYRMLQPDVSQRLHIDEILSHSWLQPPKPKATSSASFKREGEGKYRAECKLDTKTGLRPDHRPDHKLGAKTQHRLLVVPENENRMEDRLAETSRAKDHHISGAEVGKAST

activity [1]: 82% | activity [2]: 84% | activity [3]: 109% | activity [4]: 100% | IC50 [5]: 51 nM (active) | activity [6]: 94% | activity [7]: 91% | activity [8]: 122% | activity [9]: 87% | activity [10]: 96% | activity [11]: 97% | activity [12]: 92% | activity [13]: 94% | activity [14]: 70% | activity [15]: 85% | activity [16]: 83% | activity [17]: 129% | activity [18]: 89% | activity [19]: 88% | activity [20]: 89% | activity [21]: 87% | activity [22]: 85% | activity [23]: 93% | activity [24]: 120% | activity [25]: 107% | activity [26]: 100% | activity [27]: 90% | activity [28]: 82% | activity [29]: 86% | activity [30]: 95% | activity [31]: 108% | activity [32]: 113% | activity [33]: 92% | activity [34]: 88% | activity [35]: 110% | activity [36]: 98% | activity (Homo sapiens): 109% | activity [37]: 107% | activity [38]: 72% | activity [39]: 101%
Compound: Cc1cc2c(-c3ccc(NC(=O)[C@H](N)CC(C)(C)C)cc3C)ccnc2[nH]1

Reference: ChEMBL document CHEMBL5723584 (2023)
